We go through seven compounds from article PMC9558907, “Synthesis and pharmacological evaluation of newly detected synthetic cannabinoid receptor agonists AB-4CN-BUTICA, MMB-4CN-BUTINACA, MDMB-4F-BUTICA, MDMB-4F-BUTINACA and their analogs” (Frontiers in Psychiatry, 2022).

The structures appear in SMILES notation. Where only a bound is given, the exact number is not on record here.

In data set [1] the target is T1, human CB1 (Homo sapiens, UniProt P21554). Nature of the data set: fluorescence-based membrane potential assay (GIRK activation) in AtT20 cells. Type of data set: cell-based. Set-up: expressed in transfected cells; host or cells: mouse AtT20 FlpIn cells. As to conditions: for hCB1 maximal response at 10 μM (footnote d) / hCB1 Emax ±SEM: AtT20-hCB1; for hCB1 maximal response at 10 μM (footnote d): highest concentration tested, curve not fitted; for hCB1 Emax ±SEM: normalised to 1 μM CP55,940; for EC50: hCB1 EC50, AtT20-hCB1, value in brackets after pEC50.
T1 sequence (P21554 whole entry): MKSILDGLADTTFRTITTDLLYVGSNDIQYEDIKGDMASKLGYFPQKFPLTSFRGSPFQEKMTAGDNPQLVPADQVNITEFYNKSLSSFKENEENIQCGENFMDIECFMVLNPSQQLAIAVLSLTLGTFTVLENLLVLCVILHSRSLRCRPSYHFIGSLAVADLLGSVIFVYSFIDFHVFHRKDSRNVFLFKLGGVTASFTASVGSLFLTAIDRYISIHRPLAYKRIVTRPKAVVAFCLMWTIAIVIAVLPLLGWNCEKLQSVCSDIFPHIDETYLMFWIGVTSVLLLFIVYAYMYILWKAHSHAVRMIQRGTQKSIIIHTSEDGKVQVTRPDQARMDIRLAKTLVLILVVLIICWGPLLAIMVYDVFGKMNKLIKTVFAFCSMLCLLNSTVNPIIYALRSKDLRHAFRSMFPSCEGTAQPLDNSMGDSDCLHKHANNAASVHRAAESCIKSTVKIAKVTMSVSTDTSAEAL

Data set [2] concerns the target T2, human CB2 (Homo sapiens, UniProt P34972). The description is as above. Set-up: expressed in transfected cells; host or cells: mouse AtT20 FlpIn cells. The settings on record: for hCB2 Emax ±SEM: normalised to 1 μM CP55,940. Type of data set: cell-based.
Data set [3] deals with T1, human CB1. Nature of the data set: competitive radioligand binding assay, displacement of [3H]CP55,940, HEK cell membranes. Set-up: expressed in transfected cells; host or cells: HEK293 cells, P2 membrane preparation. The settings on record: [3H]CP55,940 1 nM. In general terms: Loss of bound radioactivity is the signal in a displacement assay; it reports binding, not function.

Data set [4] deals with T2, human CB2. Described as above. Set-up: expressed in transfected cells; host or cells: HEK293 cells, P2 membrane preparation. As to conditions: [3H]CP55,940 1 nM.
A further data set concerns CB1. Set-up: method as in PMID 26134475. As to conditions: cited from earlier work.
For a further data set, the system named is CB2. Set-up: method as in PMID 26134475. The settings on record: cited from earlier work.
Where [5] appears, read: hCB2 EC50, AtT20-hCB2, value in brackets after pEC50.
[6] abbreviates: hCB1 pKi ±SEM, mean ± SEM of 3 to 6 independent experiments.
[7] abbreviates: hCB2 Ki, value in brackets after pKi.
Setting [8] is: hCB1 Ki, value in brackets after pKi.
Where [9] appears, read: hCB2 pKi ±SEM, mean ± SEM of 3 to 6 independent experiments.

T2 sequence (P34972 whole entry): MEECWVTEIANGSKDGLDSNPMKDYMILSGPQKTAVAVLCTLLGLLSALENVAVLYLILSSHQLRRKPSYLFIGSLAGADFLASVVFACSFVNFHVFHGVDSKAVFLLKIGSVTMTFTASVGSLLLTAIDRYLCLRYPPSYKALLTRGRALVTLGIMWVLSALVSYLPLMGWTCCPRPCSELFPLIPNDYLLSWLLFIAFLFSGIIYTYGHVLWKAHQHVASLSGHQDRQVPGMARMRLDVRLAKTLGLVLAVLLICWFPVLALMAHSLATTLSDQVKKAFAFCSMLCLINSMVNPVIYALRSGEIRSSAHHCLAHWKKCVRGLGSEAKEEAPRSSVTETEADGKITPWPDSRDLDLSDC

One may read the melting point as the temperature of the solid-liquid transition. One may read the EC50 as the concentration at which the effect is half-maximal. Higher therefore signals a need for much substance. As a reminder, the Ki is the dissociation constant of the complex between target and ligand, obtained from inhibition or displacement. The compound `NC(=O)[C@H](Cc1ccccc1)NC(=O)c1cn(CCCCF)c2ncccc12` [Compound 33, (S)-N-(1-amino-1-oxo-3-phenylpropan-2-yl)-1-(4-fluorobutyl)-1H-pyrrolo[2,3-b]pyridine-3-carboxamide] returned a melting point of 153 to 154 °C. Further, the “hCB1 maximal response at 10 μM (footnote d)” value on human CB1 [1] is “submaximal agonist activity”. For the same compound, on human CB1 [1] (listed as APP-4F-BUT7AICA (33)), the “hCB1 maximal response at 10 μM (footnote d)” value is 25 ± 14^d % CP55,940. For the same compound, the “hCB2 Emax ±SEM” value on human CB2 [2] (AtT20-hCB2) is 99 ± 12 % CP55,940. Also, at human CB2 [2] (setting [5]), the 50% effective concentration (EC50) was 1170 nM. For the same compound, at human CB1 [3] (setting [6]), the Ki was more than 10000 nM. On human CB2 [4] (setting [7]), this compound gave an inhibition constant Ki of 2400 nM.
The compound `COC(=O)[C@@H](NC(=O)c1cn(CCCCF)c2ccccc12)C(C)C` [Compound 34, methyl (1-(4-fluorobutyl)-1H-indole-3-carbonyl)-L-valinate] returned a melting point of 111 to 114 °C. In addition, at human CB1 [1], the “hCB1 Emax ±SEM” value was 116 ± 3 % CP55,940 and the 50% effective concentration (EC50) was 76.9 nM. In addition, the “hCB2 Emax ±SEM” value on human CB2 [2] (AtT20-hCB2) is 102 ± 2 % CP55,940. On human CB2 [2] (setting [5]), this compound had a half-maximal effective concentration (EC50) of 11.4 nM. The compound further gave an EC50 on human CB2 [2] (hCB2 pEC50 ±SEM, AtT20-hCB2) of 11.2 nM. The compound also had a Ki on human CB1 [3] (setting [8]) of 97.7 nM. The Ki at human CB2 [4] (setting [7]) was 26.9 nM.
For `COC(=O)[C@H](Cc1ccccc1)NC(=O)c1cn(CCCCF)c2ccccc12` [Compound 35, methyl (1-(4-fluorobutyl)-1H-indole-3-carbonyl)-L-phenylalaninate], the melting point lay within 124 to 126 °C. Besides, at human CB1 [1], the “hCB1 Emax ±SEM” value is on record as 105 ± 2 % CP55,940 and the response was half-maximal at 36.6 nM (EC50). Further, at human CB2 [2] (AtT20-hCB2), the “hCB2 Emax ±SEM” value is given as 100 ± 2 % CP55,940. For the same compound, the EC50 at human CB2 [2] (setting [5]) is 10.1 nM. For the same compound, the inhibition constant (Ki) on human CB1 [3] (setting [8]) is 270 nM. For the same compound, the affinity at human CB2 [4] (setting [7]) corresponds to a Ki of 6.1 nM. In addition, the affinity at human CB2 [4] (setting [9]) corresponds to a Ki of 6.03 nM.
`COC(=O)[C@@H](NC(=O)c1cn(CCCCF)c2ncccc12)C(C)C` [Compound 38, methyl (1-(4-fluorobutyl)-1H-pyrrolo[2,3-b]pyridine-3-carbonyl)-L-valinate]: the melting point lay in the range of 81 to 82 °C. Moreover, at human CB1 [1], the “hCB1 Emax ±SEM” value is given as 115 ± 16 % CP55,940 and the EC50 is 1390 nM. The “hCB2 Emax ±SEM” value on human CB2 [2] (AtT20-hCB2) is recorded as 114 ± 6 % CP55,940. Also, a half-maximal effect at human CB2 [2] (setting [5]) (EC50) was put at 49.6 nM. The compound also gave an inhibition constant Ki at human CB1 [3] (setting [8]) of 220 nM. This compound also had a Ki on human CB1 [3] (setting [6]) of 224 nM. On human CB2 [4] (setting [7]), the Ki was 61 nM. At human CB2 [4] (setting [9]), this compound showed a Ki of 60.3 nM.
`COC(=O)[C@@H](NC(=O)c1cn(CCCCF)c2ncccc12)C(C)(C)C` [Compound 39, methyl (S)-2-(1-(4-fluorobutyl)-1H-pyrrolo[2,3-b]pyridine-3-carboxamido)-3,3-dimethylbutanoate]: the melting point fell in the range of 56 to 58 °C. At human CB1 [1], the “hCB1 Emax ±SEM” value is 109 ± 3 % CP55,940 and the concentration giving a half-maximal response (EC50) is 22.2 nM. Also, at human CB2 [2] (AtT20-hCB2), the “hCB2 Emax ±SEM” value is given as 95 ± 2 % CP55,940. Besides, at human CB2 [2] (setting [5]), the midpoint of the response, the EC50, lay at 3.88 nM. At human CB1 [3] (setting [8]), this compound had a Ki of 107 nM. For the same compound, the affinity on human CB2 [4] (setting [7]), expressed as Ki, was 2.14 nM.
Consider `COC(=O)[C@H](Cc1ccccc1)NC(=O)c1cn(CCCCF)c2ncccc12` [Compound 40, methyl (1-(4-fluorobutyl)-1H-pyrrolo[2,3-b]pyridine-3-carbonyl)-L-phenylalaninate], for which the melting point lay in the range of 109 to 112 °C. At human CB1 [1], the “hCB1 Emax ±SEM” value is reported as 122 ± 10 % CP55,940 and the EC50 was 637 nM. Moreover, the “hCB2 Emax ±SEM” value on human CB2 [2] (AtT20-hCB2) was 110 ± 6 % CP55,940. On human CB2 [2] (setting [5]), the half-maximal effective concentration (EC50) was 26.9 nM. At human CB1 [3] (setting [8]), this compound showed an inhibitory constant (Ki) of 880 nM. The compound further gave a Ki on human CB2 [4] (setting [9]) of 28.8 nM.
In general, Emax refers to the size of the effect at its maximum, as opposed to the concentration needed. By pEC50 is commonly meant the negative decadic logarithm of the EC50, by convention in mol/L. As for `CCCCCc1cc(O)c2c(c1)OC(C)(C)[C@@H]1CCC(C)=C[C@@H]21` [THC, Δ^9-tetrahydrocannabinol], in the data set on CB1, the maximal response (Emax) at CB1 was 58% and the negative-log EC50 (pEC50) at CB1 is reported as 6.76 ± 0.09. Further, the “effect at 30 μM at CB2” value with CB2 is on record as 32%.
